# Data reported in the METLIN SMRT retention time set (Domingo-Almenara et al. 2019).
# Assay: gradient 5% acetonitrile 3 min, to 50% in 2 min, to 85% in 15 min, held 3 min, 100 µL/min
# Conditions: column: Zorbax Extend-C18 2.1 x 50 mm; eluents: water / acetonitrile, 0.1% formic acid
# Outline: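 Retention time was recorded from adduct peaks, which were picked computationally and each inspected manually. Pure standards ran in mixtures of ~100 molecules on HPLC coupled to a quadrupole time-of-flight mass spectrometer, in positive and negative ionization mode, through a Zorbax Extend-C18 column (2.1 × 50 mm, 1.8 μm) at 100 μL/min. Eluents were water and acetonitrile, each with 0.1% formic acid.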
row,RP-LC retention time,Compound
1,573 s,CN(CCNC(=O)c1cccc(N2CCNC(c3ccccc3)C2)n1)C1CCCCC1 (centres undefined)
2,573 s,CC(NC(=O)NC1CCCCC1)C(c1cccs1)N1CCN(C)CC1 (centres undefined)
3,758 s,COc1ccc(-c2cc3c4nn(CC(=O)NC(C)C)c(=O)n4ccn3n2)cc1
4,659 s,CCCCNC(=O)C(=O)NCc1n[nH]c(=O)c2ccccc12
5,1360 s,Cc1cccc(Cn2cccc2-c2nc(-c3ccc4c(c3)OCO4)no2)c1
6,730 s,Cc1ccc(CNC(=O)c2ccc3c(c2)CC(=O)N3C)cc1
7,846 s,CSc1cccc(NC(=O)C(=O)NCc2cccs2)c1
8,1040 s,Cc1cc(C)c(S(=O)(=O)N2CCCCC2)c(C)c1[N+](=O)[O-]
9,703 s,O=C(c1ccc(F)c(F)c1)N1CCCN(c2cc(-c3ccc4c(c3)OCO4)[nH]n2)CC1
10,788 s,O=C(Nc1ccc(Oc2ccccc2)cc1)c1cccc([N+](=O)[O-])c1C(=O)O
11,606 s,O=C(COc1ccc(Cl)cc1)N1CCc2nc[nH]c2C1
12,813 s,COc1ccccc1-c1nc(-c2ccccn2)no1
13,731 s,CCCN(CCC)S(=O)(=O)c1cccc(-c2cn3cc(C)ccc3n2)c1
14,1040 s,Cc1c(-c2nn3c(Cc4ccccc4)nnc3s2)nnn1-c1ccc(Cl)cc1
15,670 s,CS(=O)(=O)N(C1CCOCC1)C1CN(C(=O)Nc2ccccc2F)C1
16,982 s,CS(=O)(=O)Nc1ccc([N+](=O)[O-])cc1OC1CCCCC1
17,846 s,Cc1ccnc(N2CCCC(C(=O)Nc3cc(Cl)ccc3C)C2)n1 (centres undefined)
18,604 s,CCc1noc([C@@H]2CC(F)(F)CN2C(=O)c2cnc[nH]2)n1
19,902 s,CCN(CC)C(=O)c1sc(-c2cn(C(C)C)c3ncccc23)nc1C
20,617 s,CC(=O)N1CCC(C(=O)Nc2ncc(C)s2)CC1
21,776 s,COc1ccc(NC(=O)c2cccn2Cc2noc(C)n2)cc1
22,1080 s,CC(C)N1C(=O)C(C)(C(=O)NC2CCCCCC2)Oc2cccnc21 (centres undefined)
23,750 s,O=C(NCCn1c(=O)n(Cc2ccccc2)c2cccnc21)c1ccsc1

row,RP-LC retention time,Compound
1,576 s,CCOc1ccc(-c2ccc(=O)n(Cc3nc(-c4ccc(C)c(C)c4)no3)n2)cc1
2,690 s,Cc1cc(N2CCN(C(=O)c3ccc(Br)o3)CC2)nc(N2CCCCC2)n1
3,753 s,Cc1nc(CCNC(=O)C2CCN(S(=O)(=O)c3ccccc3C(F)(F)F)CC2)cs1
4,708 s,Cc1ccc(C(=O)NC2CCN(c3cc(-c4ccccc4)[nH]n3)C2)s1 (centres undefined)
5,766 s,CN1C(=O)Cc2cc(C(=O)NCc3ccc(F)c(Cl)c3)ccc21
6,1030 s,CCn1c(C(=O)N(C)c2ccc(Br)cc2)cc2c(=O)oc3ccccc3c21
7,746 s,CCc1ccc(CNC(=O)c2cc3c(=O)n(C)ccc3n2C)cc1
8,798 s,CCc1nc(OCC(=O)N(CC)c2ccccc2)c2ccccc2n1
9,878 s,CCn1ccc2oc(C)c(C(=O)NCc3cc(C)ccc3C)c2c1=O
10,1140 s,CCOC(=O)c1ccc2nc(C(F)(F)F)nc(NCCc3ccc(OC)c(OC)c3)c2c1
11,762 s,CCOc1ccccc1NC(=O)Cn1c(=O)c(CCC(=O)NCC(C)C)nc2ccccc21
12,868 s,COc1ccc(CNC(=O)c2ccc3c(c2)N(C)C(=O)C2CCCCN32)c(OC)c1 (centres undefined)
13,678 s,Cc1ccn2cc(C(=O)NCc3cc(F)cc(F)c3)nc2c1
14,1060 s,Cc1cc(C)c2c(-n3cccc3)nn(Cc3ccc(C(=O)NCc4ccco4)cc3)c2n1
15,691 s,COc1ccc(CNC(=O)c2[nH]c3cc(C)sc3c2CN(C)C)c(OC)c1
16,1160 s,Cc1ccc(NC(=O)N2CCc3nc(-c4ccc(Cl)cc4)ncc3C2)cc1C
17,596 s,Cc1ccc2c(Nc3ccc(F)cc3F)c(C(=O)N3CCCC3)cnc2n1
18,572 s,COCCNC(=O)CCC1CCN(c2cc(NC3CC3)ncn2)CC1
19,663 s,CCN1C(=O)CCC2(C(=O)Nc3ccc(N4CCOCC4)cc3)CCCC=C12 (centres undefined)
20,772 s,COc1cc(C(=O)Nc2ccc(C)cc2-c2nc3ccccc3[nH]c2=O)cc(OC)c1OC
21,596 s,CCOc1ccc(-c2[nH]ncc2CN2CCC3(CC2)CC(C)(O)CCO3)cc1 (centres undefined)
22,1070 s,O=C1COc2cc(Cl)ccc2N1Cc1nc(-c2ccc3c(c2)OCO3)no1
23,688 s,COc1ccc(S(=O)(=O)N2CCCC(Cn3c(C)nc4cccnc43)C2)cc1 (centres undefined)

row,RP-LC retention time,Compound
1,1030 s,Cc1ccc(N2CCN(c3nccn4c(=O)n(CC(=O)Nc5cc(C)cc(C)c5)nc34)CC2)cc1
2,560 s,Cn1ccc2c(cc(C(=O)N3CCN(c4ccccn4)CC3)n2C)c1=O
3,866 s,CCCn1cc(CCNC(=O)Nc2cc(F)c(F)c(F)c2)c2cccnc21
4,878 s,CCC(Sc1nc(=O)cc(N)n1CCc1ccccc1)C(=O)Nc1nc(-c2ccccc2)cs1 (centres undefined)
5,698 s,CCN1CCCn2cc(S(=O)(=O)Nc3cccc(OC)c3)cc2C1=O
6,654 s,CCCC(=O)Nc1ccc2c(c1)CCC(=O)N2CCOC
7,907 s,COc1ccc(-c2noc(C3CCCN3C(=O)c3ccccc3)n2)cc1 (centres undefined)
8,655 s,COc1ccc(NC(=O)C2c3cc(OC)c(OC)cc3C(=O)N(C)C2c2cccnc2)c(OC)c1 (centres undefined)
9,877 s,CN(Cc1ccccc1)C(=O)C1c2ccccc2C(=O)N(C)C1c1cccs1 (centres undefined)
10,590 s,Cc1nnc2n1CCC(NS(=O)(=O)c1ccccc1F)CC2 (centres undefined)
11,867 s,COc1ccccc1NC(=O)Cn1nc2c(Oc3cccc(F)c3)nccn2c1=O
12,543 s,O=C(O)c1ccc(S(=O)(=O)NCc2ccccn2)cc1
13,891 s,O=c1c2nc(-c3ccc(Cl)cc3)cn2ccn1-c1ccc(F)c(F)c1
14,658 s,Cc1ccc(CN2C(=O)COC[C@H]2C(=O)NC2CC2)cc1
15,1030 s,CS(=O)(=O)c1ccccc1C(=O)Nc1nc(-c2cc(Cl)sc2Cl)cs1
16,866 s,O=C(Nc1ccc(C(=O)N2CCCCC2)c(N2CCCCCC2)c1)C1CC1
17,738 s,Cc1cc(C)n(-c2ccc(C(=O)Nc3ccc(O)cc3)cn2)n1
18,642 s,CCCOc1ccc(C2NCCc3c2[nH]c2ccccc32)cc1OC (centres undefined)
19,621 s,O=C(C1CC1)N1CCC(c2noc(-c3cnccn3)n2)C1 (centres undefined)
20,772 s,CCc1nnc(-c2ccc(NC(=O)COc3ccccc3F)cc2)o1
21,673 s,COc1ccccc1N1CCN(C(=O)C2CCN(c3cnc4nccnc4c3)CC2)CC1
22,718 s,C=C(C)Cn1c(COc2ccccc2)nc2ccccc21
23,816 s,CC(C)C(=O)NCc1csc(C2CCCN(C(=O)CC3CCCCC3)C2)n1 (centres undefined)
